Measurements from PMC11288129, “Diversely evolved xibalbin variants from remipede venom inhibit potassium channels and activate PKA-II and Erk1/2 signaling” (BMC Biology, 2024).
Marks after values point to notes of the source that are not given here. Positions of bridges follow the written chain, without caps; N, C: chain ends. No end group written: not given here.

Columns and labels:
BgNav [1] = experiment: TEVC current-voltage relationship (Vhalf), BgNav; assay type: cell-based, Blattella germanica; design: Vhalf, toxin inactivation, BgNav / Vhalf, toxin activation, BgNav: unit not given here; details: for Vhalf, toxin activation, BgNav / Vhalf, toxin inactivation, BgNav: 1 µM
From the text: (§1) For the expression of Kv channels rat Kv1.1 (GenBank accession number: NM_173095 [88, 89]), rKv1.2 (NM_012970 [90, 91]), human Kv1.3 (NM_002232 [92, 93]), rKv1.4 (NM_012971 [94, 95]), rKv1.6 (NM_023954 [96, 97]), hKv2.1 (NM_004975 [98, 99]), hKv3.1 (NM_004976 [100, 101]), rKv4.2 (NM_031739 [102, 103]), hKv10.1 (NM_172362 [104, 105]), hERG1 [Kv11.1, (NM_000238 [106, 107])], and Shaker IR [from Drosophila melanogaster, (NM_167595 [108, 109])], Nav channels [rNav1.2 (NM_012647 [42, 110]), rNav1.4 (NM_013178 [111, 112]), hNav1.5 (NM_198056 [113, 114]), mNav1.6 (NM_001077499 [115, 116]), BgNav [from Blattella germanica, (DQ466887 [117, 118])] and the auxiliary subunits rβ1 (NM_001271045 [119, 120]), hβ1 (NM_001037 [121, 122]), and TipE [from D. melanogaster, (NM_079196 [109, 123])], and Cav channels hCav3.1 [124, 125], hCav3.2 [126, 127], and hCav3.3 [128, 129] in Xenopus oocytes, the linearized plasmids were transcribed using the T7 or SP6 mMESSAGEmMACHINE transcription kit (Ambion, Austin, TX, USA). Mature female animals were purchased from Nasco (Fort Atkinson, USA) and were housed in the Aquatic Facility (KU Leuven) in compliance with the regulations of the European Union (EU) concerning the welfare of laboratory animals as declared in Directive 2010/63/EU. The use of X. laevis oocytes was approved by the Animal Ethics Committee of the KU Leuven with the license number P186/2019. Stage V–VI oocytes were collected from anesthetized female X. laevis frog as previously described, with the frogs anesthetized by placement in 0.1% tricaine solution (amino benzoic acid ethyl ester; Merck, USA). Oocyte microinjection was performed using a microinjector (Drummond Scientifc®, USA), with a programmed cRNA injection volume of 4—50 nL, depending on the channel subtype. The oocytes were incubated in ND96 solution (96 mM NaCl, 2 mM KCl, 1.8 mM CaCl2, 2 mM MgCl2, and 5 mM HEPES, pH 7.4), supplemented with 50 mg/l gentamicin sulfate.
(§2) Electrophysiological measurements were performed at room temperature (18–22 °C) using the two-electrode voltage clamp (TEVC) technique. Data were obtained using a GeneClamp 500 amplifier (Axon Instruments, USA), and Clampex9 software (Axon Instruments), responsible for data acquisition and storage. Glass micropipettes were produced using glass capillaries (borosilicate WPI 1B120-6) and drawn in a WPI (World Precision Instruments, USA) manual stretcher. The bath and perfusion solutions were either the previously described ND96 (Nav and Kv channels) or calcium-free ND96 supplemented with 10 mM BaCl2 (Cav channels).
(§3) Whole-cell currents of oocytes were recorded 1 to 3 days after injection. Current and voltage electrodes were filled with 3 M KCl and their resistance was adjusted from 0.7 to 2.0 MΩ. Currents were sampled at 20 kHz (Nav channels) and 10 kHz (Kv and Cav channels) and filtered using a four-pole Bessel low-pass Bessel filter, at 1 kHz for sodium, and […] for potassium and calcium, except for the hERG ion channel, in which the currents were filtered at 1 kHz. Leak subtraction was performed using a -P/4 protocol. Kv1.x currents were evoked by 500 ms depolarizations to 0 mV followed by a 500-ms pulse to − 50 mV, from a holding potential of − 90 mV. Kv2.1, Kv3.1, and Kv4.2 currents were elicited by 500 ms pulses to + 20 mV from a holding potential of − 90 mV. Current traces of Kv10.1 were elicited by 2 s depolarization to 0 mV, from a holding potential of − 90 mV. Current traces of hERG1 channel were elicited by applying a + 40 mV prepulse for 2 s followed by a step of − 120 mV for 2 s. Sodium current traces were evoked by a 100 ms depolarization to 0 mV, from a holding potential of − 90 mV. The current–voltage (IV) relationships were determined by 100-ms step depolarizations between − 90 and + 40 mV, using 5 mV increments. […]

rKv4.2 = experiment: TEVC inhibition, Kv4.2; assay type: cell-based, rat; design: unit not given here; details: 1 µM
From the text: as §1, §2, §3

BgNav [2] = experiment: TEVC inhibition, BgNav; assay type: cell-based, Blattella germanica; design: Inhibition data, BgNav: unit not given here; details: 1 µM
From the text: as §1, §2, §3

rNav1.4 = experiment: TEVC current-voltage relationship (Vhalf), Nav1.4; assay type: cell-based, rat; design: Vhalf, toxin inactivation, Nav1.4 / Vhalf, toxin activation, Nav1.4: unit not given here; details: for Vhalf, toxin activation, Nav1.4 / Vhalf, toxin inactivation, Nav1.4: 1 µM
From the text: as §1, §2, §3

hKv3.1 = experiment: TEVC inhibition, Kv3.1; assay type: cell-based, human; design: unit not given here; details: 1 µM
From the text: as §1, §2, §3

Shaker IR = experiment: TEVC inhibition, Shaker IR; assay type: cell-based, Drosophila melanogaster; design: unit not given here; details: 1 µM
From the text: as §1, §2, §3

hCav3.3 = experiment: TEVC inhibition, Cav3.3; assay type: cell-based, human; design: unit not given here; details: 1 µM
From the text: as §1, §2, §3

hCav3.2 = experiment: TEVC inhibition, Cav3.2; assay type: cell-based, human; design: unit not given here; details: 1 µM
From the text: as §1, §2, §3

Sequence: KRSCIRRFGRCDHRPNDCCYNSSCRCNLWGSNCRCQRMGLFQKWGK (disulfide 4-19, 11-24, 18-35, 26-33) [xib13]
- Vhalf activation shift, BgNav (BgNav [1]; 1 µM versus control (ND96)): 7.7*** mV
- Vhalf inactivation shift, BgNav (BgNav [1]; 1 µM versus control (ND96)): 0.2 mV
- Vhalf, toxin activation, BgNav (BgNav [1]; replicate 1): -17.0858
- Vhalf, toxin inactivation, BgNav (BgNav [1]; replicate 1): -50.0173
- Vhalf, toxin activation, BgNav (BgNav [1]; replicate 2): -22.9798
- Vhalf, toxin inactivation, BgNav (BgNav [1]; replicate 2): -54.2542
- Vhalf, toxin activation, BgNav (BgNav [1]; replicate 3): -20.8319
- Vhalf, toxin inactivation, BgNav (BgNav [1]; replicate 3): -48.9373
- Vhalf, toxin activation, BgNav (BgNav [1]; replicate 4): -18.4734
- Vhalf, toxin inactivation, BgNav (BgNav [1]; replicate 4): -48.3513
- Inhibition data, Kv4.2 (rKv4.2; replicate 1): 0.0
- Inhibition data, Kv4.2 (rKv4.2; replicate 2): 0.0
- Inhibition data, Kv4.2 (rKv4.2; replicate 3): 0.0
- Inhibition data, Kv4.2 (rKv4.2; replicate 4): 0.0
- inhibition of BgNav (BgNav [2]): targeted
- Inhibition data, BgNav (BgNav [2]; replicate 1): 51.7
- Inhibition data, BgNav (BgNav [2]; replicate 2): 40.6
- Inhibition data, BgNav (BgNav [2]; replicate 3): 30.9
- Inhibition data, BgNav (BgNav [2]; replicate 4): 44.2
- Vhalf activation shift, Nav1.4 (rNav1.4; 1 µM versus control (ND96)): 3.4 mV
- Vhalf, toxin activation, Nav1.4 (rNav1.4; replicate 1): -16.1478
- Vhalf, toxin inactivation, Nav1.4 (rNav1.4; replicate 1): -45.0612
- Vhalf, toxin activation, Nav1.4 (rNav1.4; replicate 2): -15.8394
- Vhalf, toxin inactivation, Nav1.4 (rNav1.4; replicate 2): -52.747
- Vhalf, toxin activation, Nav1.4 (rNav1.4; replicate 3): -14.4257
- Vhalf, toxin inactivation, Nav1.4 (rNav1.4; replicate 3): -47.6866
- Inhibition data, Kv3.1 (hKv3.1; replicate 1): 0.0
- Inhibition data, Kv3.1 (hKv3.1; replicate 2): 0.0
- Inhibition data, Kv3.1 (hKv3.1; replicate 3): 0.0
- Inhibition data, Kv3.1 (hKv3.1; replicate 4): 0.0
- Inhibition data, Shaker (Shaker IR; replicate 1): 0.0
- Inhibition data, Shaker (Shaker IR; replicate 2): 0.0
- Inhibition data, Shaker (Shaker IR; replicate 3): 0.0
- Inhibition data, Shaker (Shaker IR; replicate 4): 0.0
- Inhibition data, Cav3.3 (hCav3.3; replicate 1): 0.0
- Inhibition data, Cav3.3 (hCav3.3; replicate 2): 0.0
- Inhibition data, Cav3.3 (hCav3.3; replicate 3): 0.0
- Inhibition data, Cav3.3 (hCav3.3; replicate 4): 0.0
- Inhibition data, Cav3.2 (hCav3.2; replicate 1): 0.0
- Inhibition data, Cav3.2 (hCav3.2; replicate 2): 0.0
- Inhibition data, Cav3.2 (hCav3.2; replicate 3): 0.0
- Inhibition data, Cav3.2 (hCav3.2; replicate 4): 0.0

Sequence: RLFCIRHHKYCGHRPKRCCSGLFCRCNTFGTNCRCQSKGALGKLI (disulfide 4-19, 11-24, 18-35, 26-33) [xib1]
- Vhalf activation shift, BgNav (BgNav [1]; 1 µM versus control (ND96)): 2.1 mV
- Vhalf, toxin activation, BgNav (BgNav [1]; replicate 1): -20.8516
- Vhalf, toxin inactivation, BgNav (BgNav [1]; replicate 1): -45.0763
- Vhalf, toxin activation, BgNav (BgNav [1]; replicate 2): -24.1418
- Vhalf, toxin inactivation, BgNav (BgNav [1]; replicate 2): -46.3574
- Vhalf, toxin activation, BgNav (BgNav [1]; replicate 3): -27.3818
- Vhalf, toxin inactivation, BgNav (BgNav [1]; replicate 3): -51.0148
- Vhalf, toxin activation, BgNav (BgNav [1]; replicate 4): -26.78
- Inhibition data, Kv4.2 (rKv4.2; replicate 1): 0.0
- Inhibition data, Kv4.2 (rKv4.2; replicate 2): 0.0
- Inhibition data, Kv4.2 (rKv4.2; replicate 3): 0.0
- Inhibition data, Kv4.2 (rKv4.2; replicate 4): 0.0
- inhibition of BgNav (BgNav [2]): targeted
- Inhibition data, BgNav (BgNav [2]; replicate 1): 10.1
- Inhibition data, BgNav (BgNav [2]; replicate 2): 7.7
- Inhibition data, BgNav (BgNav [2]; replicate 3): 7.6
- Inhibition data, BgNav (BgNav [2]; replicate 4): 7.6
- Vhalf, toxin activation, Nav1.4 (rNav1.4; replicate 1): -19.1826
- Vhalf, toxin inactivation, Nav1.4 (rNav1.4; replicate 1): -47.3987
- Vhalf, toxin activation, Nav1.4 (rNav1.4; replicate 2): -12.5775
- Vhalf, toxin inactivation, Nav1.4 (rNav1.4; replicate 2): -44.7262
- Vhalf, toxin activation, Nav1.4 (rNav1.4; replicate 3): -17.1419
- Vhalf, toxin inactivation, Nav1.4 (rNav1.4; replicate 3): -46.0496
- Inhibition data, Kv3.1 (hKv3.1; replicate 1): 0.0
- Inhibition data, Kv3.1 (hKv3.1; replicate 2): 0.0
- Inhibition data, Kv3.1 (hKv3.1; replicate 3): 0.0
- Inhibition data, Kv3.1 (hKv3.1; replicate 4): 0.0
- Inhibition data, Shaker (Shaker IR; replicate 1): 0.0
- Inhibition data, Shaker (Shaker IR; replicate 2): 0.0
- Inhibition data, Shaker (Shaker IR; replicate 3): 0.0
- Inhibition data, Shaker (Shaker IR; replicate 4): 0.0
- Inhibition data, Cav3.3 (hCav3.3; replicate 1): 0.0
- Inhibition data, Cav3.3 (hCav3.3; replicate 2): 0.0
- Inhibition data, Cav3.3 (hCav3.3; replicate 3): 0.0
- Inhibition data, Cav3.3 (hCav3.3; replicate 4): 0.0
- Inhibition data, Cav3.2 (hCav3.2; replicate 1): 0.0
- Inhibition data, Cav3.2 (hCav3.2; replicate 2): 0.0
- Inhibition data, Cav3.2 (hCav3.2; replicate 3): 0.0
- Inhibition data, Cav3.2 (hCav3.2; replicate 4): 0.0
